The source of these data is patent US8981046B2, “Synthetic cell platforms and methods of use thereof” (The Regents of the University of California, priority 2007, dated 2015).

In experiment [1] the test system is neural stem cells. Kind of experiment: Flow cytometry binding of clonal peptide-displaying bacteria to neural stem cells. Particulars: clonal bacterial populations after third round of selection. Set-up: species or system rat. The text has this:
This technology has also been used to identify peptides capable of binding to the surface of adult neural stem cells. Both N- and C-terminal peptide display libraries were screened on NSCs, with the first two rounds selected through centrifugal pelleting of NSCs to isolate bacterial clones displaying binding peptides, and the third round selected through FACS. Following the third round, numerous peptide clones were sequenced (˜30 novel sequences determined to date).
Three different, validated peptide libraries were pooled to generate a large library (>10^10 independent clones) and were used for selection and screening.^79 These libraries include a random 15-mer (—X15—) fused to either the N- or C-terminus of the CPX display scaffold and an N-terminal constrained library of the form X2CX7CX2. The library has been made intrinsically fluorescent using a bicistronic expression vector to enable co-expression of a green fluorescent protein optimized for FACS.
The bacterial library was screened for binding peptides. For the first two cycles, screening was again conducted by co-sedimentation, where as many as 10^8 NSCs suspended via mechanical disruption in 0.5 mM EDTA as described^82 were incubated with 10^10 bacteria prior to several gentle centrifugations and rinses. The resulting mixture was added directly to bacterial media (LB) for expansion of the binding clones. The second cycle repeated this process with 10-fold fewer bacteria for higher stringency. In the third cycle, after incubation with 10^6 NSCs and washing, cells were sorted (as in FIGS. 5-6) using a DAKO-Cytomation MoFlo flow cytometer in the UC Berkeley Cancer Center to stringently isolate bacteria that are bound to NSCs. The resulting sorted bacteria were expanded. Plasmid DNA was isolated from a number of individual clones (at least 100)^79 and subjected to DNA sequencing to identify the peptide responsible for binding to the NSC surface.
Bacterial peptide display libraries were constructed, as described above, and tested for binding capacity to neural stem cells. Clonal populations of the bacterial peptide display libraries after the third round of selection were analyzed via flow cytometry to measure the binding capacity of the clones. Sequences of the clones were determined through DNA sequence of the plasmid expressed by the bacteria. Table 5 presents amino acid sequences of peptides and the binding capacity to NSCs of bacterial clones displaying the peptides.
In general terms: A flow cytometer gives signals particle by particle.

Experiment [2] has as its system neural stem cells. Put plainly: NSC proliferation on peptide-grafted IPNs after 5 days (Cyquant). Format: cell-based, rat. Particulars: for cell proliferation: Cyquant, normalized to cells seeded. The source says: Cell proliferation was quantified on peptide-grafted IPN surfaces after 5 days with Cyquant. The cell number was normalized to the amount of cells seeded on the IPN surfaces.

The test system of the next experiment is H1 hES cells. Kind of experiment: H1 hES cell culture on peptide-conjugated IPN surfaces in NC-SFM. Format: cell-based, human. Conditions: for hESC culture outcome (Oct4, survival): H1 cells, NC-SFM, peptide-conjugated IPN. Here is the method: To take an important step towards a fully chemically defined microenvironment, H1 hES cells were cultured,^17 for which a serum-free, defined medium has been developed. In addition, this feeder-free system involves culturing cells on tissue culture polystyrene coated with Matrigel, an ECM mixture of predominantly […], collagen IV, and heparan sulfate.^19, 82 Cells were grown in non-conditioned, serum free medium (NC-SFM), which consists of X-VIVO 10 (Cambrex, Walkersville, Md.) medium supplemented with 0.5 ng/mL TGF-β1 and 80 ng/mL FGF-2 (Invitrogen).
Cultures on Matrigel consisted of Oct4^+ hESC colonies interspersed with differentiated, Oct4-stromal cells derived from the hESCs, as previously described (note that the hESCs can be selectively passaged by timing the enzymatic digest).^82 H1 cells were also cultured in the NC-SFM on bsp-RGD(15) conjugated IPN surfaces (identical to those in FIGS. 3-4). […] Both HSF6 cells on the sIPN (FIG. 7) and H1 cells on the IPN were able to maintain Oct4 expression for 3 passages (˜10 days).

The subject of experiment [3] is neural stem cells. Put plainly: NSC adhesion and proliferation on peptide-modified IPNs. The format is cell-based, rat. The source says:
Neural stem cells are typically cultured on surfaces consisting of a poly(styrene)-based material with a passively adsorbed, animal-derived extracellular matrix (ECM) protein such as laminin or fibronectin.^67, 69 However, both animal- and human-derived ECM or proteins likely contain variable splice and glycoforms, offer limited micro- and nano-scale control of solid-phase signaling, pose problems with lot to lot variability, and otherwise present problems for therapeutic application.^16, 70 The ability of a peptide-modified interpenetrating polymer network (IPN) synthesized from acrylamide (AAm), poly(ethylene glycol) monomethyl ether monomethacrylate (pEGMA), and acrylic acid (AAc) monomers to support NSC growth was explored. NSCs isolated from the adult rat hippocampus,^67 were seeded onto 15 amino-acid bone sialoprotein RGD peptide [bsp-RGD(15)]-modified IPNs at various cell densities over four orders of magnitude.
FIG. 3.a-d) Bright field images of neural stem cells grown on peptide-modified IPNs or laminin-I in proliferating media conditions (1.2 nM FGF-2). e) Growth curves for proliferation of neural stem cells as assayed by a total nucleic acid stain. Data represent mean±standard deviation of 3-5 samples. Surfaces not in the same group (*, §, †, or ‡) were statistically different from one another (p<0.05; ANOVA between groups with Tukey-Kramer Honestly Significant Difference post-hoc test).

In experiment [4] the test system is neural stem cells. Put plainly: qRT-PCR marker expression / differentiation of NSCs on peptide-modified hydrogels. Format: cell-based, rat. The source says:
Stem cells are defined not only by their self-renewal but also their ability to undergo differentiation into one or more phenotypes. […] Therefore, the synthetic IPN, displaying an integrin-binding peptide, was able to substitute for laminin in supporting NSC proliferation and differentiation.
The effects of varying peptide identity and density on NSC differentiation were explored.
The box plots summarize the distribution of points, where the thick line signifies the median and the ends of the box are the 25th and 75th quartiles.
A general note: In qPCR the cycle at which signal appears reflects the starting amount.

Experiment [5] deals with neural stem cells. Put plainly: Initial NSC attachment on peptide-grafted IPNs (Cyquant, 6 hours). Format: cell-based, rat. Conditions: various grafting concentrations. Here is the method: IPNs were grafted with RGD, 7C-9, and 7C-24 peptides at various concentrations. After allowing neural stem cells attach to the surface for 6 hours, the amount of cells was quantified with Cyquant, a fluorescent DNA-binding dye.

In the next experiment the test system is Akt. Kind of experiment: Akt activation in neural stem cells on peptide hydrogels (Western blotting). The format is cell-based, rat. Particulars: NSCs on biomimetic hydrogel. The text has this: The phosphoinositide-3 kinase (PI 3-kinase) signaling pathway, which can be activated by numerous cell surface receptors, has been implicated in regulating cell survival and proliferation in a number of contexts.^90-92 After ligation and activation of canonical receptors, phosphorylation of receptor tails on specific tyrosine residues recruits PI 3-kinase to the cell surface to phosphorylate phosphoinositide lipids. These lipids then recruit several kinases, including PDK1 and Akt. Phosphorylation of the latter by the former activates Akt, which then modulates a number of downstream effectors (such as Bad, mTOR, forkhead transcription factors, GSK-3β, and others) important in cell survival, proliferation, and other functions.^92, 93 Very importantly, PI 3-kinase and Akt signaling may be a general pathway important for stem cell proliferation and self-renewal. […] Finally, chemical or genetic inhibition of this pathway inhibits self-renewal, whereas overexpression of transducers in this pathway promotes self-renewal in a mitogen-independent fashion.
FIG. 8. […] Likewise relocalization of a PH-GFP genetic sensor to the cell surface acts as a sensor of PI 3-kinase signal activation after FGF-2 addition. An analogous genetic sensor of Akt based on FRET has been generated.^6
Background: A western blot detects proteins with antibodies after separation by electrophoresis.

Where [6] appears, read: peptide hydrogel vs laminin, proliferating or differentiating media.

WVCNDLIHHFCVW [Co-15]: the “% NSCs with Bacteria” value with neural stem cells [1] was 70.9%. The same measure, in the same setting: next, WLCLDKNCMACVW [Clone 7C-8]: 68.8%; WWCKKPEYWYCIW [Co-18]: 71.3%; WYCFRENKYVCVM [Clone 7C-1]: 75.2%. Regarding WECAEESKFWCVF [Co-17], the “% NSCs with Bacteria” value in the experiment on neural stem cells [1] is listed as 72.1%.

As for LEDAMGWALSWGHIW [Clone 15-6], the “% NSCs with Bacteria” value in the experiment on neural stem cells [1] was 70.2%. On the same count and under the same terms, next, SLCAAYNRWACIW [Co-1]: 73.8%. On the same count and under the same terms, next, WVCNKLGVYACEY [Clone 7C-19]: 20.5%. Still for that read-out and setting: the figure for WNCIKGSSWACVW [Clone 7C-21] is 75.5%; for WTWESAFAGRWEVGD [Co-8] it is 61.7%. Take QCCQLRGDAVCNC [Clone 7C-15]: in the experiment with neural stem cells [1], the “% NSCs with Bacteria” value worked out at 54.0%.

In the case of WSCPKVNQYACFW [Co-2], the “% NSCs with Bacteria” value in the experiment with neural stem cells [1] was 74.8%. Still for that read-out and setting: next, GECFYYVMNTCVW [Clone 7C-6]: 61.8%; VWCGMFGKRRCVT [Co-22]: 75.6%; WVCLWRHRGDCSI [Co-12]: 74.3%. On the same count and under the same terms, next, WRCLGDGYHACVR [Co-10]: 72.7%; YMCMSRGDATCDV [Clone 7C-4]: 62.0%.

For LCCESYICALCHY [Clone 7C-11], in the experiment on neural stem cells [1], the “% NSCs with Bacteria” value was determined as 37.7%. On the same count and under the same terms, the figure for STCSWVSSYVCIM [Co-13] is 64.8%. The same measure, in the same setting: next, WWCDMRGDSRCSG [Clone 7C-24]: 61.7%; SDWSVLLSCERWYCI [Clone 15-16]: 63.9%; WDCGKKNAWMCIW [Co-5]: 67.4%. Still for that read-out and setting: the figure for QGCAFVTYWACIF [Co-16] is 71.9%; for GGCRWYAKWVCVW [Co-3] it is 75.7%. For the sequence LECTERGDFNCFV [Clone 7C-7], the “% NSCs with Bacteria” value in the experiment with neural stem cells [1] came out at 47.8%. Same read-out and setting: next, ESCWYQIMYKCAN [Clone 7C-2]: 55.2%. With KLCCFDKGYYCMR [Clone 7C-9], in the experiment on neural stem cells [2] (low peptide surface concentrations, vs RGD surfaces), the “cell proliferation at similar surface peptide concentration” value is “slower proliferation”. Further, in the experiment with neural stem cells [1], the “% NSCs with Bacteria” value is given as 71.3%. Consider FWCIRGEYWVCDR [Clone 7C-12], for which the “% NSCs with Bacteria” value in the experiment with neural stem cells [1] turned out to be 64.5%. Same read-out and setting: the figure for WLCKGSNKYMCEW [Clone 7C-17] is 67.8%. Same read-out and setting: the figure for MYCERDSKYWCIH [Co-21] is 70.9%. On the same count and under the same terms, the figure for SKCWGWTPYYCVA [Co-9] is 75.7%.

In the case of WMCSGVQPNACVW [Clone 7C-22], the “% NSCs with Bacteria” value in the experiment on neural stem cells [1] came out at 46.9%. On the same count and under the same terms, the figure for IWCGSRFGCWCKP [Clone 7C-5] is 65.6%; for LNCAMYNACIW [Clone 7C-14] it is 54.5%; for RLCCWKTQYFCEI [Co-20] it is 70.9%. “CGGNGEPRGETYRAY [bsp-RGE(15), negative control peptide]”: the “hESC culture outcome (Oct4, survival)” value in the experiment with H1 hES cells is listed as “cells predominantly died”. In addition, the cell proliferation entry in the experiment with neural stem cells [2] is recorded as “little or no cells detached”. Further, in the experiment on neural stem cells [3] (proliferating media conditions (20 ng/ml FGF-2)), the “cell adhesion and morphology on peptide-modified IPN” value is given as “did not support attachment”. The “neuronal differentiation / neuronal marker expression” value with neural stem cells [4] (as bsp-RGD(15) density was decreased and this peptide increased) is listed as “neuronal differentiation decreased”. Besides, the cell attachment result with neural stem cells [5] was “below the detection limit of the assay”. Turning to DHKFGLVMLNKYAYAG [Clone 15-2], the “% NSCs with Bacteria” value with neural stem cells [1] stood at 75.9%. Same read-out and setting: next, GFVLVWSYTCRCWGK [Clone 15-50]: 64.9%.

Regarding DLCTYGHLWLGNGRP [Clone 15-59], in the experiment with neural stem cells [1], the “% NSCs with Bacteria” value is 22.5%.

WVCIWERFKSCNE [Clone 7C-20]: the “% NSCs with Bacteria” value in the experiment on neural stem cells [1] is given as 65.7%. The same measure, in the same setting: the figure for LECPGESKYYCIY [Co-11] is 72.7%. Same read-out and setting: next, LVCNRQNPWVCYI [Co-23]: 71.1%; WQCGRFWCIHCLW [Co-19]: 50.6%; RRELVRMTDWVWVSG [Clone 15-32]: 70.4%. For the sequence “CGGNGEPRGDTYRAY [bsp-RGD(15), 15 amino-acid bone sialoprotein RGD peptide]”, in the experiment on H1 hES cells (H1 cells on the IPN (~10 days)), the “maintenance of Oct4 expression” value came to 3 passages. The “hESC culture outcome (Oct4, survival)” value in the experiment on H1 hES cells was “high Oct4 levels in large hESC colonies”. Moreover, the cell proliferation result with neural stem cells [2] was “much higher amount of cell proliferation than 7C-9 and 7C-24-grafted surfaces”. The “activation of Akt” value with Akt is “activation of Akt to a greater extent than a surface displaying the negative control bsp-RGE(15) peptide”. For the same sequence, the NSC proliferation result in the experiment with neural stem cells [3] (highest peptide density, vs laminin-coated surfaces, p<0.05) is “slightly faster cell proliferation than standard laminin-coated surfaces”. In addition, the “cell adhesion on IPN with lower peptide density” value with neural stem cells [3] (lower or no bsp-RGD(15), proliferating media) is “cells did not adhere effectively”. For the same sequence, the “nestin expression (qRT-PCR)” value with neural stem cells [4] (21 pmol·cm^−2 peptide hydrogel vs laminin, 1.2 nM FGF-2) is on record as “statistically indistinguishable levels of nestin”. Besides, in the experiment on neural stem cells [4] (setting [6]), the “GFAP expression (qRT-PCR)” value is given as “equal levels” and the “β-tubulin III expression (qRT-PCR)” value was “equal levels”.

Take ESGLKVMCMKYYCMA [Clone 15-52]: the “% NSCs with Bacteria” value with neural stem cells [1] is reported as 63.3%. On the same count and under the same terms, the figure for WFCLLGRSAYCVR [Clone 7C-3] is 71.9%.
